Measurements reported in the supplement of paper PMC10307832.

Legend:
Test in all cases: relative viability (nuclei count vs DMSO), 5 days (fraction); higher = more cells survive
Linifanib = compound: Cc1ccc(F)c(NC(=O)Nc2ccc(-c3cccc4[nH]nc(N)c34)cc2)c1 [Linifanib]
Method in brief: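 Vehicle-anchored 1536-well plates of lung cancer cell lines, held overnight at 37 °C, were pinned with five library-drug doses (not always all listed) spaced by √10. No medium change followed over the next 5 days, after which the cells were fixed, permeabilised and Hoechst-stained together and imaged at 4×. Nuclei were counted with MetaXpress, and viability is treated-well nuclei over vehicle-well nuclei, taken as a median across plates. Plates passed with control CV below 25% and at least one doubling.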

Linifanib + Tozasertib = compound: Cc1ccc(F)c(NC(=O)Nc2ccc(-c3cccc4[nH]nc(N)c34)cc2)c1 [Linifanib] + Cc1cc(Nc2cc(N3CCN(C)CC3)nc(Sc3ccc(NC(=O)C4CC4)cc3)n2)n[nH]1 [Tozasertib] (partner 0.1 µM)
Method in brief: (§1)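 A single step with final 0.05% Triton X-100, 1% formaldehyde and 1 ug/ml Hoechst fixed the cells and stained nuclei 5 days after treatment. Lung cancer cell lines in 1536-well plates had been treated by pin tool the day after seeding with one drug alone or a fixed anchor-drug dose plus five library-drug doses (not always all listed) in √10 steps, and nuclei were counted on 4× images. Relative viability is the ratio of nuclei in treated wells to nuclei in vehicle wells, taken as the median of duplicate plates.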

Linifanib + Olaparib = compound: Cc1ccc(F)c(NC(=O)Nc2ccc(-c3cccc4[nH]nc(N)c34)cc2)c1 [Linifanib] + O=C(c1cc(Cc2n[nH]c(=O)c3ccccc23)ccc1F)N1CCN(C(=O)C2CC2)CC1 [Olaparib] (partner 8 µM)
Method in brief: as §1

Linifanib + Decitabine = compound: Cc1ccc(F)c(NC(=O)Nc2ccc(-c3cccc4[nH]nc(N)c34)cc2)c1 [Linifanib] + Nc1ncn([C@H]2C[C@H](O)[C@@H](CO)O2)c(=O)n1 [Decitabine] (partner 2 µM)
Method in brief: as §1

Linifanib + AZD7762 = compound: Cc1ccc(F)c(NC(=O)Nc2ccc(-c3cccc4[nH]nc(N)c34)cc2)c1 [Linifanib] + NC(=O)Nc1cc(-c2cccc(F)c2)sc1C(=O)N[C@H]1CCCNC1 [AZD7762] (partner 0.2 µM)
Method in brief: as §1

Linifanib + Pemetrexed = compound: Cc1ccc(F)c(NC(=O)Nc2ccc(-c3cccc4[nH]nc(N)c34)cc2)c1 [Linifanib] + Nc1nc2[nH]cc(CCc3ccc(C(=O)N[C@@H](CCC(=O)O)C(=O)O)cc3)c2c(=O)[nH]1 [Pemetrexed] (partner 0.2 µM)
Method in brief: as §1

Linifanib + Palbociclib = compound: Cc1ccc(F)c(NC(=O)Nc2ccc(-c3cccc4[nH]nc(N)c34)cc2)c1 [Linifanib] + CC(=O)c1c(C)c2cnc(Nc3ccc(N4CCNCC4)cn3)nc2n(C2CCCC2)c1=O [Palbociclib] (partner 0.5 µM)
Method in brief: as §1

Linifanib + Trametinib = compound: Cc1ccc(F)c(NC(=O)Nc2ccc(-c3cccc4[nH]nc(N)c34)cc2)c1 [Linifanib] + CC(=O)Nc1cccc(-n2c(=O)n(C3CC3)c(=O)c3c(Nc4ccc(I)cc4F)n(C)c(=O)c(C)c32)c1 [Trametinib] (partner 0.02 µM)
Method in brief: as §1

Linifanib + Vorinostat = compound: Cc1ccc(F)c(NC(=O)Nc2ccc(-c3cccc4[nH]nc(N)c34)cc2)c1 [Linifanib] + O=C(CCCCCCC(=O)Nc1ccccc1)NO [Vorinostat] (partner 1 µM)
Method in brief: as §1

Linifanib + OSI-027 = compound: Cc1ccc(F)c(NC(=O)Nc2ccc(-c3cccc4[nH]nc(N)c34)cc2)c1 [Linifanib] + COc1cccc2cc(-c3nc([C@H]4CC[C@H](C(=O)O)CC4)n4ncnc(N)c34)[nH]c12 [OSI-027] (partner 0.5 µM)
Method in brief: as §1

Linifanib + Phenformin = compound: Cc1ccc(F)c(NC(=O)Nc2ccc(-c3cccc4[nH]nc(N)c34)cc2)c1 [Linifanib] + N=C(N)NC(=N)NCCc1ccccc1 [Phenformin] (partner 250 µM)
Method in brief: as §1

Linifanib + Lapatinib = compound: Cc1ccc(F)c(NC(=O)Nc2ccc(-c3cccc4[nH]nc(N)c34)cc2)c1 [Linifanib] + CS(=O)(=O)CCNCc1ccc(-c2ccc3ncnc(Nc4ccc(OCc5cccc(F)c5)c(Cl)c4)c3c2)o1 [Lapatinib] (partner 2 µM)
Method in brief: as §1

Linifanib + Crizotinib = compound: Cc1ccc(F)c(NC(=O)Nc2ccc(-c3cccc4[nH]nc(N)c34)cc2)c1 [Linifanib] + C[C@@H](Oc1cc(-c2cnn(C3CCNCC3)c2)cnc1N)c1c(Cl)ccc(F)c1Cl [Crizotinib] (partner 1 µM)
Method in brief: as §1

Linifanib + Navitoclax = compound: Cc1ccc(F)c(NC(=O)Nc2ccc(-c3cccc4[nH]nc(N)c34)cc2)c1 [Linifanib] + CC1(C)CCC(c2ccc(Cl)cc2)=C(CN2CCN(c3ccc(C(=O)NS(=O)(=O)c4ccc(N[C@H](CCN5CCOCC5)CSc5ccccc5)c(S(=O)(=O)C(F)(F)F)c4)cc3)CC2)C1 [Navitoclax] (partner 0.5 µM)
Method in brief: as §1

Linifanib + Foretinib = compound: Cc1ccc(F)c(NC(=O)Nc2ccc(-c3cccc4[nH]nc(N)c34)cc2)c1 [Linifanib] + COc1cc2c(Oc3ccc(NC(=O)C4(C(=O)Nc5ccc(F)cc5)CC4)cc3F)ccnc2cc1OCCCN1CCOCC1 [Foretinib] (partner 0.25 µM)
Method in brief: as §1

Linifanib + Linsitinib = compound: Cc1ccc(F)c(NC(=O)Nc2ccc(-c3cccc4[nH]nc(N)c34)cc2)c1 [Linifanib] + C[C@]1(O)C[C@@H](c2nc(-c3ccc4ccc(-c5ccccc5)nc4c3)c3c(N)nccn32)C1 [Linsitinib] (partner 1 µM)
Method in brief: as §1

Linifanib + Alpelisib = compound: Cc1ccc(F)c(NC(=O)Nc2ccc(-c3cccc4[nH]nc(N)c34)cc2)c1 [Linifanib] + Cc1nc(NC(=O)N2CCC[C@H]2C(N)=O)sc1-c1ccnc(C(C)(C)C(F)(F)F)c1 [Alpelisib] (partner 2 µM)
Method in brief: as §1

Linifanib + Pictilisib = compound: Cc1ccc(F)c(NC(=O)Nc2ccc(-c3cccc4[nH]nc(N)c34)cc2)c1 [Linifanib] + CS(=O)(=O)N1CCN(Cc2cc3nc(-c4cccc5[nH]ncc45)nc(N4CCOCC4)c3s2)CC1 [Pictilisib] (partner 1 µM)
Method in brief: as §1

NCI-H1648
relative viability (Linifanib; 0.03162 µM): 0.847
relative viability (Linifanib; 0.1 µM): 0.688
relative viability (Linifanib; 0.3162 µM): 1.08
relative viability (Linifanib + Tozasertib; first compound 0.03162 µM): 0.433
relative viability (Linifanib + Tozasertib; first compound 0.1 µM): 0.441
relative viability (Linifanib + Tozasertib; first compound 0.3162 µM): 0.422
relative viability (Linifanib + Olaparib; first compound 0.03162 µM): 0.847
relative viability (Linifanib + Olaparib; first compound 0.3162 µM): 1.11
relative viability (Linifanib + Decitabine; first compound 0.03162 µM): 0.5
relative viability (Linifanib + Decitabine; first compound 0.3162 µM): 0.45
relative viability (Linifanib + AZD7762; first compound 0.03162 µM): 0.755
relative viability (Linifanib + AZD7762; first compound 0.3162 µM): 0.509
relative viability (Linifanib + Pemetrexed; first compound 0.03162 µM): 0.716
relative viability (Linifanib + Pemetrexed; first compound 0.3162 µM): 0.654
relative viability (Linifanib + Palbociclib; first compound 0.03162 µM): 0.234
relative viability (Linifanib + Palbociclib; first compound 0.3162 µM): 0.269
relative viability (Linifanib + Trametinib; first compound 0.03162 µM): 0.469
relative viability (Linifanib + Trametinib; first compound 0.3162 µM): 0.461
relative viability (Linifanib + Vorinostat; first compound 0.03162 µM): 0.491
relative viability (Linifanib + Vorinostat; first compound 0.3162 µM): 0.412
relative viability (Linifanib + OSI-027; first compound 0.03162 µM): 0.26
relative viability (Linifanib + OSI-027; first compound 0.1 µM): 0.229
relative viability (Linifanib + OSI-027; first compound 0.3162 µM): 0.263

A549
relative viability (Linifanib; 0.03162 µM): 1.01
relative viability (Linifanib; 0.1 µM): 1.05
relative viability (Linifanib; 0.3162 µM): 0.996
relative viability (Linifanib + Phenformin; first compound 0.03162 µM): 0.197
relative viability (Linifanib + Phenformin; first compound 0.1 µM): 0.215
relative viability (Linifanib + Phenformin; first compound 0.3162 µM): 0.159
relative viability (Linifanib + Olaparib; first compound 0.03162 µM): 0.369
relative viability (Linifanib + Olaparib; first compound 0.1 µM): 0.535
relative viability (Linifanib + Olaparib; first compound 0.3162 µM): 0.305
relative viability (Linifanib + Lapatinib; first compound 0.03162 µM): 0.974
relative viability (Linifanib + Lapatinib; first compound 0.1 µM): 1.06
relative viability (Linifanib + Lapatinib; first compound 0.3162 µM): 0.929
relative viability (Linifanib + Decitabine; first compound 0.03162 µM): 0.285
relative viability (Linifanib + Decitabine; first compound 0.1 µM): 0.309
relative viability (Linifanib + Decitabine; first compound 0.3162 µM): 0.374
relative viability (Linifanib + Crizotinib; first compound 0.03162 µM): 0.795
relative viability (Linifanib + Crizotinib; first compound 0.1 µM): 0.907
relative viability (Linifanib + Crizotinib; first compound 0.3162 µM): 0.726
relative viability (Linifanib + Navitoclax; first compound 0.03162 µM): 1.18
relative viability (Linifanib + Navitoclax; first compound 0.1 µM): 1.28
relative viability (Linifanib + Navitoclax; first compound 0.3162 µM): 1.09
relative viability (Linifanib + Foretinib; first compound 0.03162 µM): 0.972
relative viability (Linifanib + Foretinib; first compound 0.1 µM): 0.922
relative viability (Linifanib + Foretinib; first compound 0.3162 µM): 0.808
relative viability (Linifanib + Linsitinib; first compound 0.03162 µM): 0.583
relative viability (Linifanib + Linsitinib; first compound 0.1 µM): 0.716
relative viability (Linifanib + Linsitinib; first compound 0.3162 µM): 0.638
relative viability (Linifanib + Alpelisib; first compound 0.03162 µM): 0.885
relative viability (Linifanib + Alpelisib; first compound 0.1 µM): 0.948
relative viability (Linifanib + Alpelisib; first compound 0.3162 µM): 0.647
relative viability (Linifanib + Pictilisib; first compound 0.03162 µM): 0.399
relative viability (Linifanib + Pictilisib; first compound 0.1 µM): 0.515
relative viability (Linifanib + Pictilisib; first compound 0.3162 µM): 0.49
